# Data taken from patent publication US20190046545A1, “COMPOSITIONS WITH SPECIFIC OLIGOSACCHARIDES TO PREVENT LATER IN LIFE OBESITY OR RELATED COMORBIDITIES, BY INCREASING COLONIC SCFA PRODUCTION AND/OR BY INCREASING GLP-1 SECRETION” (NESTEC S.A., priority 2016, published 2019).
# System: BALB/cByJ CRL mice
# Experiment: SCFA production in caecum content of mice fed low-fiber diets enriched with 5% of tested fibers, measured by Gas-Liquid Chromatography
# Type: in vivo
# Conditions: 5 wt % fiber, versus low-fiber diet only
# Text: 5 week old females BALB/cByJ CRL mice from Charles River were split into several groups and fed during 6 weeks based on the following protocol: • Week 1: low-fiber diet (composition is detailed in table 2) for all groups • Weeks 2 to 6: • Control group (group A): low-fiber diet (same as for week 1) • Test groups (groups B-D): low-fiber diet (same as for week 1) supplemented with 5 wt % of a tested fiber (5% of the total low fiber diet was replaced by 5% of a tested fiber)
# The following fibers were tested: • BMOs=bovine milk oligosaccharides: an oligosaccharide mixture comprising 99.3% of GOS, 0.2% of N-acetylated oligosaccharide and 0.5% sialylated oligosaccharide was tested • PDX=polydextrose • Pectin
# After 6 weeks, the animals of each group were sacrificed and the content from caecum was collected. The SOFA production were measured by Gas-Liquid Chromatography (GLC; amounts of SOFA in nmol/mg dry weight). The following SOFA were measured: propionate, butyrate, valerate and acetate.
# The measure was made based on the following protocol: SOFA in an acid solution (pH 2.0 to 3.0) were separated on a GLC column coated with a polar stationary phase. […] After centrifugation, the sterile-filtered supernatant was ready for analysis by GLC. SOFA were measured simultaneously.
# Median ratio values were calculated in order to compare the different fiber-enriched diets on SOFA production.
row,Substance,"Caecal SCFA production (acetate, propionate, butyrate, valerate) compared with low-fiber diet"
1,polydextrose [PDX],less SOFA release of all kinds
2,Pectin,less SOFA release of all kinds
